# Structures can show the parent of a compound that is named as a salt.
# Key:
# [1] = tested on: MPTP-lesioned common marmosets; experiment: locomotor activity in MPTP-lesioned common marmosets; format: in vivo, Callithrix jacchus; conditions: for hyperactivity (3 times normal activity in naive marmosets): alone or combined
# Method: All experimental work was carried out in accordance with the Animals (Scientific Procedures Act) 1986, project license nr PPL 70/4986. Administration of MPTP: […] Research Biochemical International, UK) was dissolved in 0.9% sterile saline solution and administered by subcutaneous (sc) injection (Pearce, et al., De Novo Administration of Ropinirole and Bromocriptine Induces Less Dyskinesia than L-DOPA in the MPTP-treated Common Marmoset, Mov Dis, Mar, 13(2), 234-41, (1998)). To induce the full lesion, MPTP (2.0 mg/kg, sc) was administered once daily for 5 consecutive days. During MPTP-treatment and for the following six to eight weeks, animals were hand fed on a marmoset jelly diet until they had recovered sufficiently to feed themselves and their body weights had stabilised. All animals were determined responsive to L-DOPA administration prior to use. Testing commenced only when animals had recovered from the acute effects of MPTP treatment. In this study this was 70 days after commencement for MPTP treatment. Drugs: […] Doses are expressed as mg/kg free base. L-DOPA methyl ester (Sigma, UK) was dissolved in 10% sucrose in given in a volume of 2 ml/kg and administered by oral gavage. Carbidopa (Merck Sharp and Dohme, UK) was suspended in 10% sucrose in given in a volume of 2 ml/kg and administered directly into the mouth of the animal. Domperidone (Sigma, UK) was suspended in 10% sucrose in given in a volume of 2 ml/kg and administered directly into the mouth of the animal. […] Doses of L-DOPA were chosen to reflect a moderate and high dose of L-DOPA (7.5 and 12.5 mg/kg, po respectively). Procedure: […] A modified latin square design was employed with one week wash-out periods between treatments. Animals were assessed for locomotor activity and disability as described below. Assessment of locomotor activity: […] Each cage was equipped with 8 horizontally orientated infrared photocell emitters and their corresponding detectors arranged so as to permit maximum assessment of movement. […] Analysis and Statistics: […]
# [2] = tested on: MPTP-lesioned common marmosets; experiment: motor disability rating in MPTP-treated common marmosets; format: in vivo, Callithrix jacchus
# Method: All experimental work was carried out in accordance with the Animals (Scientific Procedures Act) 1986, project license nr PPL 70/4986. Administration of MPTP: […] Research Biochemical International, UK) was dissolved in 0.9% sterile saline solution and administered by subcutaneous (sc) injection (Pearce, et al., De Novo Administration of Ropinirole and Bromocriptine Induces Less Dyskinesia than L-DOPA in the MPTP-treated Common Marmoset, Mov Dis, Mar, 13(2), 234-41, (1998)). To induce the full lesion, MPTP (2.0 mg/kg, sc) was administered once daily for 5 consecutive days. During MPTP-treatment and for the following six to eight weeks, animals were hand fed on a marmoset jelly diet until they had recovered sufficiently to feed themselves and their body weights had stabilised. All animals were determined responsive to L-DOPA administration prior to use. Testing commenced only when animals had recovered from the acute effects of MPTP treatment. In this study this was 70 days after commencement for MPTP treatment. Drugs: […] Doses are expressed as mg/kg free base. L-DOPA methyl ester (Sigma, UK) was dissolved in 10% sucrose in given in a volume of 2 ml/kg and administered by oral gavage. Carbidopa (Merck Sharp and Dohme, UK) was suspended in 10% sucrose in given in a volume of 2 ml/kg and administered directly into the mouth of the animal. Domperidone (Sigma, UK) was suspended in 10% sucrose in given in a volume of 2 ml/kg and administered directly into the mouth of the animal. […] Doses of L-DOPA were chosen to reflect a moderate and high dose of L-DOPA (7.5 and 12.5 mg/kg, po respectively). Procedure: […] A modified latin square design was employed with one week wash-out periods between treatments. Animals were assessed for locomotor activity and disability as described below. Rating of disability: The animals were monitored through a one-way mirror by experienced observers, blinded to treatment, and rated for the degree of motor dysfunction. […] Analysis and Statistics: […]
# [3] = molecular target: T1, cloned human dopamine D2,L receptors (Homo sapiens, UniProt P14416); conditions: cited from earlier work
# T1 construct: expressed in transfected cells
# T1 sequence (P14416 whole entry): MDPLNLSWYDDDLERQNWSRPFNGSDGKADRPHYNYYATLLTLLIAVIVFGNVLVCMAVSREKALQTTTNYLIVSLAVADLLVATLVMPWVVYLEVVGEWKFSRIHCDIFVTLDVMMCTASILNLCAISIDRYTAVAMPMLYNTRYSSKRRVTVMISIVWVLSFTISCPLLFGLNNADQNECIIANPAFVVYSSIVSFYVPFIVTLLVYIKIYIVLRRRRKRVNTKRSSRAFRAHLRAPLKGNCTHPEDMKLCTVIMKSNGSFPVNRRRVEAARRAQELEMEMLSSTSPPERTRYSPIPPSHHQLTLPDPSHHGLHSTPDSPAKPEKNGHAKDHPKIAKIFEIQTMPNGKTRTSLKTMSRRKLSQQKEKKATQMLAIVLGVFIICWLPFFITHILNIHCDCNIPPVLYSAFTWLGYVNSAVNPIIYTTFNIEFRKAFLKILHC
# [4] = molecular target: T2, human recombinant dopamine D3 receptors (Homo sapiens, UniProt P35462); conditions: cited from earlier work
# T2 construct: expressed in transfected cells
# T2 sequence (P35462 whole entry): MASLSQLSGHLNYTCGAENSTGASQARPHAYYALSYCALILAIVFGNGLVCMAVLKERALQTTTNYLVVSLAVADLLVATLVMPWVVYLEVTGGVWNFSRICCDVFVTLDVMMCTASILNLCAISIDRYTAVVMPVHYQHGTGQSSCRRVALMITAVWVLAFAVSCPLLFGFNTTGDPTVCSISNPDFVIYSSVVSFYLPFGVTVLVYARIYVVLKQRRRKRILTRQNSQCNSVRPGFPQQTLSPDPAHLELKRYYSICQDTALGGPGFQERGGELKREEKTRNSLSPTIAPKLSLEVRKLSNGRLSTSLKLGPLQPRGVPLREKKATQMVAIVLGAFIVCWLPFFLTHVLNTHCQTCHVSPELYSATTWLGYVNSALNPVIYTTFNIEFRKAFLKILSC
# [5] = molecular target: T3, cloned human 5-HT1A receptors (Homo sapiens, UniProt P08908); conditions: forskolin induced cAMP accumulation; cited from earlier work
# T3 construct: expressed in transfected cells
# T3 sequence (P08908 1-422): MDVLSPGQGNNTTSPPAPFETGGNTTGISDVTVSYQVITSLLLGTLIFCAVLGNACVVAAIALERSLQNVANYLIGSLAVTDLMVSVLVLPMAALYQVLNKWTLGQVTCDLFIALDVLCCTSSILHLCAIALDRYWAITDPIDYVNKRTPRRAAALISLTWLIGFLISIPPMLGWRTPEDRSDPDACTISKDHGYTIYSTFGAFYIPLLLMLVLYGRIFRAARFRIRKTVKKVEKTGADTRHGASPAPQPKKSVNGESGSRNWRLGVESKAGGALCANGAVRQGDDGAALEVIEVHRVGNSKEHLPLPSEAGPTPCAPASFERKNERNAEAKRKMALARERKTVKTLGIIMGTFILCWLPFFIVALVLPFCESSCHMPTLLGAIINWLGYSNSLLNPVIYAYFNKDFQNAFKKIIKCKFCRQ
# dopamine D2/3 receptor = conditions: rat striatal slices; cited from earlier work
# dopamine D2 receptor = molecular target: T4, dopamine D2 receptor (Rattus norvegicus, UniProt P61169); conditions: against inhibitory effect of quinpirole on K+-stimulated [3H]dopamine release, rat striatal slices; cited from earlier work
# T4 construct: from rat striatal slices; from tissue; host or cells: rat striatal slices
# T4 sequence (P61169 whole entry): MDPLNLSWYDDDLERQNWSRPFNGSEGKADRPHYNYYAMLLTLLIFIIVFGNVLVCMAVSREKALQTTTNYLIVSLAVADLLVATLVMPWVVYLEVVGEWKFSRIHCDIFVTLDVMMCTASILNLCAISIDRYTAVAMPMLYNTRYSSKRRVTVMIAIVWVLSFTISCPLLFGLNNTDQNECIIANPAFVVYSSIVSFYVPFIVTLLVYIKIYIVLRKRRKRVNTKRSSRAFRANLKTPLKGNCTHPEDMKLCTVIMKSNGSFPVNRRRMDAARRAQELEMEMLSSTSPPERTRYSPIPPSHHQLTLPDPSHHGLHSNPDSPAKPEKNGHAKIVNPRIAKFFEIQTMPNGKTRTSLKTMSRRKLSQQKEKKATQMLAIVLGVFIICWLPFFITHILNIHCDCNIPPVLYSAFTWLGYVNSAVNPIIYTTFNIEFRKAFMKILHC
# [6] = tested on: MPTP-lesioned common marmosets; conditions: po; previous study; cited from earlier work
# [7] = prodrug; WO 2007/023141; cited from earlier work
# [8] = SLV308 0.26 mg/kg po, L-DOPA 7.5 and 12.5 mg/kg po
# [9] = L-DOPA 7.5 and 12.5 mg/kg po, SLV308 0.26 mg/kg po
structure (smiles),measurement,setting,value
"CN1CCN(c2cccc3[nH]c(=O)oc23)CC1 [SLV308, 7-[4-methyl-1-piperazinyl]-2(3H)-benzoxazolone mono hydrochloride]",time of peak locomotor activity after treatment,[1]; SLV308 0.26 mg/kg po,180 min
same,time to increase of locomotor activity after administration,[1]; SLV308 0.26 mg/kg po,≤ 30 min
same,hyperactivity (3 times normal activity in naive marmosets),[1]; [8],hyperactivity was not observed
same,duration of locomotor activity,"[1]; SLV308 0.26 mg/kg po, whole observation period",≥ 7 h
same,MPTP-induced akinesia and disability,[2]; [9],reverse
same,onset of reversal of disability,[2]; [9],reduced disability scores immediately after administration
same,median duration of activity (reversal of disability),[2]; SLV308 0.26 mg/kg po alone,390 min
same,total disability scores over the 7 hours after administration,"[2]; SLV308 0.26 mg/kg po alone or in combination with L-DOPA 7.5 or 12.5 mg/kg, versus vehicle p<0.001",reduced
same,disability score at maximum improvement,"[2]; SLV308 0.26 mg/kg po, maximum score 18",3
same,pA2,"[3]; D2,L receptor antagonism",8.4
same,efficacy on forskolin stimulated cAMP accumulation,[3]; partial agonist,50%
same,pA2,[4]; antagonism of dopamine induction of [35S]GTPγS binding,9.0
same,pEC50,[4]; induction of [35S]GTPγS binding,9.2
same,induction of [35S]GTPγS binding,[4]; partial agonist,67 % that of dopamine
same,pEC50,[5],6.3
same,type of agonism at 5-HT1A,[5],full 5-HT1A receptor agonist
same,effect on forskolin stimulated accumulation of cAMP,dopamine D2/3 receptor,concentration-dependently attenuated
same,pA2,dopamine D2 receptor,8.5
same,dose of optimal effect on locomotor activity and disability scores,[6],0.26 mg/kg
"CCN(CC)C(=O)N[C@H]1C[C@@H]2c3cccc4[nH]cc(c34)C[C@H]2N(C)C1 [terguride, reference compound]",pA2,dopamine D2 receptor,10.3
C[N+]1([O-])CCN(c2cccc3[nH]c(=O)oc23)CC1 [N-oxide of SLV308],conversion to SLV308 in vivo,[7],rapidly converted to SLV308
"N[C@@H](Cc1ccc(O)c(O)c1)C(=O)O [L-DOPA, 3,4-dihydroxyphenylalanine]",duration of locomotor activity,[1]; L-DOPA 7.5 and 12.5 mg/kg po,2.5 to 4 h
same,onset of locomotor activity increase,[1]; L-DOPA 7.5 and 12.5 mg/kg po,immediate increase in locomotor activity
same,time of peak locomotor activity after administration,[1]; L-DOPA 7.5 and 12.5 mg/kg po,60 to 90 min
same,hyperactivity (3 times normal activity in naive marmosets),[1]; [8],produced periods of hyperactivity
same,duration of reversal of disability,[2]; L-DOPA 7.5 mg/kg po,150 min
same,duration of reversal of disability,[2]; L-DOPA 12.5 mg/kg po,180 min
same,time of peak reversal of disability after administration,[2]; L-DOPA 7.5 and 12.5 mg/kg po,90 min
same,MPTP-induced akinesia and disability,[2]; [9],reverse
same,onset of reversal of disability,[2]; [9],immediate reversal of disability
same,disability score at peak reversal,"[2]; L-DOPA 7.5 and 12.5 mg/kg po, maximum score 18",2.5
